This note sets out measurements from US7781428B2 (Pfizer Inc., priority 2006, dated 2010).

Bounds are passed on as bounds.

Broadly, the IC50 is the concentration that gives 50% inhibition.

This assay addresses T1, mineralocorticoid receptor (MR) (Homo sapiens, UniProt P08235).
T1 construct: expressed in transfected cells; host or cells: Huh7 (human liver cells)
T1 sequence (P08235 726-964 limits assumed): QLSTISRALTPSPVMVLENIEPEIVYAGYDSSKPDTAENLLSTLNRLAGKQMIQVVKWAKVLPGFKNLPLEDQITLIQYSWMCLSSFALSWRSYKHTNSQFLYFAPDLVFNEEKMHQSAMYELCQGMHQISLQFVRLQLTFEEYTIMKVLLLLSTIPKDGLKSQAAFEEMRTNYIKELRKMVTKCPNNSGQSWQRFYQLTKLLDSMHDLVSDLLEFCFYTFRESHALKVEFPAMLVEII
The experiment in a line: Cell-based Gal4 response element-controlled luciferase reporter assay (MR antagonism). The note with it: Huh7 human liver cells transfected with Gal4 DBD-MR LBD fusion and luciferase reporter; block of agonist-induced activation; overnight incubation. An excerpt:
Method 1: Cell-based Gal4 Response Element-controlled Luciferase Reporter Assay
An in vitro assay can be used to evaluate mineralocorticoid receptor (MR) antagonism by a test compound. […] An agonist of the receptor can bind to and activate the receptor LBD, which activate the expression of the Gal4 response element containing luciferase reporter gene. Antagonists can compete for binding to the receptor LBDs and decrease the transcription activity of the reporter gene. Measurement of luciferase activity allows quantitative determinations of the reporter transcription in the presence of either agonists or agonists and antagonists in combination. β-galactosidase activity, which is unaffected by ligand, is used to normalize the transfection efficiency in the cell population.
Huh7 cells were plated in RPMI1640+10% fetal bovine serum (Invitrogen Corporation, San Diego, Calif.), at 10,000 cells per well in 96-well tissue culture dishes for approximately 24 hours. Cells were then transfected using FuGENE™ 6 Transfection Reagent according to manufacturers' instructions (Roche Molecular Biochemicals, Indianapolis, Ind.). Approximately 20 hours after transfection, media were removed. Cells were washed once with PBS and treated (n=6/group) with agonist for each receptor (all chemicals from Sigma, St. Louis, Mo.), and with compounds. Agonist concentrations represent 70-80% of full activation of each receptor.
Compounds were dissolved in DMSO at 10 mM and diluted to final concentrations in phenol red-free media that contained 10% charcoal- and dextran-stripped serum (Life Technologies, Gathersburg, Md.). Following overnight incubation (18-20 hours) with compounds, the medium was removed and replaced with 100 μL per well of PBS and 100 μL of Steady-Glo™ lysis buffer with luciferase substrate (Promega Corporation, Madison, Wis.). After a 30-minute incubation to completely lyse the cells, 100 μL of the lysate was transferred to a black, Dynatech Microfluor assay plates (Dynex Corporation, Chantilly, Va.) to measure luciferase activity. The plate was sealed with TopSeal self-adhesive film, dark-adapted for 5 minutes, then counted in a TopCount Plate Reader (Packard Instrument Company, Meriden, Conn.) in single photon counting mode. The remaining lysate was used for determination of β-galactosidase activity. In a clear 96-well assay plate, 100 μL of cell lysate was added to 100 μL β-galactosidase assay buffer per well. The assay buffer consisted of 60 mM Na2HPO4, 40 mM NaH2PO4, 10 mM KCl, 1 mM MgSO4, 50 mM β-mercaptoethanol, and 2.5 mg/mL ONPG, the latter two reagents were added just prior to assay (all chemicals from Sigma). The reaction was allowed to proceed until a distinct yellow color developed. Reactions were stopped by the addition of 100 μL per well 1 M Na2CO3 and plates were read at 420 nm in Victor-2 (Perkin Elmer Life Sciences, Boston, Mass.). Values (relative luciferase activity) for each sample were expressed as a ratio of luciferase activity to OD420β-galactosidase activity measured in arbitrary units for each well. […] “b” is the slope, “c” is the IC50 or EC50. “x” is the concentration of the compound and “y” the activity at that concentration.
In general terms: A reporter such as luciferase makes a cellular process visible.

Take `O=C(O)c1ccc2c(c1)CCC1C2=NN(c2ccc3c(c2)CCNC3=O)C1c1ccc(F)cc1` (racemic) [Example 13, 3-(4-fluorophenyl)-2-(1-oxo-1,2,3,4-tetrahydroisoquinolin-6-yl)-3,3a,4,5-tetrahydro-2H-benzo[g]indazole-7-carboxylic acid]: the IC50 came to 535 nM.
Turning to `N#Cc1ccc(N2N=C3c4ccc(C(=O)O)cc4CC[C@H]3[C@H]2c2ccco2)cc1Cl` [Example 45, (3S,3aS)-2-(3-chloro-4-cyanophenyl)-3-(2-furyl)-3,3a,4,5-tetrahydro-2H-benzo[g]indazole-7-carboxylic acid], the IC50 is greater than 1000 nM.
For `N#Cc1ccc(N2N=C3c4ccc(C(=O)NCC(=O)NCC(=O)O)cc4CC[C@@H]3[C@@H]2c2ccc(F)cc2)cc1Cl` (racemic) [Example 110, (±)-2-(2-((3RS,3aRS)-2-(3-chloro-4-cyanophenyl)-3-(4-fluorophenyl)-3,3a,4,5-tetrahydro-2H-benzo[g]indazole-7-carboxamido)acetamido)acetic acid], the IC50 was greater than 1000 nM.
For `N#Cc1ccc(N2N=C3c4ccc(C(=O)O)cc4CCC3C2c2ccc(F)cc2)cc1C(F)(F)F` (racemic) [Example 9, 2-[4-cyano-3-(trifluoromethyl)phenyl]-3-(4-fluorophenyl)-3,3a,4,5-tetrahydro-2H-benzo[g]indazole-7-carboxylic acid] the value was 170 nM.
For `Cc1cc(N2N=C3c4ccc(C(=O)O)cc4OCC3C2C2CCCC2)ccc1C#N` (racemic) [Example 61, 2-(4-cyano-3-methylphenyl)-3-cyclopentyl-2,3,3a,4-tetrahydrochromeno[4,3-c]pyrazole-7-carboxylic acid] the value was 39 nM; for `Cc1ncc(C2C3CCc4cc(C(=O)O)ccc4C3=NN2c2ccc(C#N)c(Cl)c2)s1` (racemic) [Example 49, 2-(3-chloro-4-cyanophenyl)-3-(2-methyl-1,3-thiazol-5-yl)-3,3a,4,5-tetrahydro-2H-benzo[g]indazole-7-carboxylic acid], 103 nM; for `N#Cc1ccc(N2N=C3c4ccc(C(=O)O)cc4OCC3C2c2ccc(F)cc2)cc1C(F)(F)F` (racemic) [Example 54, 2-(4-cyano-3-(trifluoromethyl)phenyl)-3-(4-fluorophenyl)-2,3,3a,4-tetrahydrochromeno[4,3-c]pyrazole-7-carboxylic acid], 973 nM.
As for `Cc1ccc([C@H]2[C@H]3CCc4cc(C(=O)O)ccc4C3=NN2c2ccc(C#N)c(Cl)c2)o1` [Example 40, (3R,3aR)-2-(3-chloro-4-cyanophenyl)-3-(5-methyl-2-furyl)-3,3a,4,5-tetrahydro-2H-benzo[g]indazole-7-carboxylic acid], the IC50 was 6 nM.
As for `Cc1cc(N2N=C3c4ccc(C(=O)O)cc4CCC3C2C2CCCC2)ccc1C#N` (racemic) [Example 21, 2-(4-cyano-3-methylphenyl)-3-cyclopentyl-3,3a,4,5-tetrahydro-2H-benzo[g]indazole-7-carboxylic acid], the IC50 amounted to 4 nM.
For `Cc1ccc(C2C3CCc4cc(C(=O)O)ccc4C3=NN2c2ccc(C#N)c(Cl)c2)o1` (racemic) [Example 39] the value was 22 nM.
Regarding `N#Cc1ccc(N2N=C3c4ccc(C(=O)NCCC(N)=O)cc4CC[C@@H]3[C@@H]2c2ccc(F)cc2)cc1Cl` (racemic) [Example 102, (±)-(3RS,3aRS)—N-(3-amino-3-oxopropyl)-2-(3-chloro-4-cyanophenyl)-3-(4-fluorophenyl)-3,3a,4,5-tetrahydro-2H-benzo[g]indazole-7-carboxamide], the IC50 is 35 nM.
The figure for `N#Cc1ccc(N2N=C3c4ccc(C(=O)O)cc4CCC3C2C2=CCCC2)cc1Cl` (racemic) [Example 42, 2-(3-chloro-4-cyanophenyl)-3-cyclopentenyl-3,3a,4,5-tetrahydro-2H-benzo[g]indazole-7-carboxylic acid] is 15 nM.
The figure for `N#Cc1ccc(N2N=C3c4ccc(C(=O)O)cc4CCC3C2C2CCOC2)cc1Cl` (racemic) [Example 34, 2-(3-chloro-4-cyanophenyl)-3-((R)-tetrahydrofuran-3-yl)-3,3a,4,5-tetrahydro-2H-benzo[g]indazole-7-carboxylic acid and 2-(3-chloro-4-cyanophenyl)-3-((S)-tetrahydrofuran-3-yl)-3,3a,4,5-tetrahydro-2H-benzo[g]indazole-7-carboxylic acid] is 720 nM; for `N#Cc1ccc(N2N=C3c4ccc(C(=O)O)cc4CC[C@H]3[C@H]2c2ccc(F)cc2)cc1` [Example 12, (3S,3aS)-2-(4-cyanophenyl)-3-(4-fluorophenyl)-3,3a,4,5-tetrahydro-2H-benzo[g]indazole-7-carboxylic acid] it is greater than 10000 nM.
For `Cc1cc(N2N=C3c4ccc(C(=O)O)cc4CC[C@H]3[C@H]2c2ccc(F)cc2)ccc1C#N` [Example 8, (3S,3aS)-2-(4-cyano-3-methylphenyl)-3-(4-fluorophenyl)-3,3a,4,5-tetrahydro-2H-benzo[g]indazole-7-carboxylic acid] the value was 2740 nM.
`COc1cc(N2N=C3c4ccc(C(=O)O)cc4CC[C@@H]3[C@@H]2C2CCCC2)ccc1C#N` [Example 26, (3S,3aR)-2-(4-cyano-3-methoxyphenyl)-3-cyclopentyl-3,3a,4,5-tetrahydro-2H-benzo[g]indazole-7-carboxylic acid]: the IC50 turned out to be 13 nM.
Take `N#Cc1ccc(N2N=C3c4ccc(O)cc4CC[C@@H]3[C@@H]2c2ccc(F)cc2)cc1C(F)(F)F` [Example 84, 4-((3R,3aR)-3-(4-fluorophenyl)-7-hydroxy-3,3a,4,5-tetrahydrobenzo[g]indazol-2-yl)-2-(trifluoromethyl)benzonitrile]: the IC50 was found to be 113 nM.
For `N#Cc1ccc(N2N=C3c4ccc(CC(=O)O)cc4OCC3C2c2ccc(F)cc2)cc1` (racemic) [Example 79, (±)-(3RS,3aRS)-[2-(4-cyanophenyl)-3-(4-fluorophenyl)-2,3,3a,4-tetrahydrochromeno[4,3-c]pyrazol-7-yl]acetic acid] the value was 6920 nM; for `N#Cc1ccc(N2N=C3c4ccc(C(=O)O)cc4CCC3C2c2ccc(F)cc2)cc1` (racemic) [Example 10, 2-(4-cyanophenyl)-3-(4-fluorophenyl)-3,3a,4,5-tetrahydro-2H-benzo[g]indazole-7-carboxylic acid], 553 nM.
As for `N#Cc1ccc(N2N=C3c4ccc(C(=O)O)cc4OCC3C2C2CC2)cc1Cl` (racemic) [Example 76, 2-(3-chloro-4-cyanophenyl)-3-cyclopropyl-2,3,3a,4-tetrahydrochromeno[4,3-c]pyrazole-7-carboxylic acid], the IC50 was greater than 1000 nM.
For `CS(=O)(=O)CCNC(=O)c1ccc2c(c1)CC[C@H]1C2=NN(c2ccc(C#N)c(Cl)c2)[C@H]1c1ccc(F)cc1` [Example 95, (3R,3aR)-2-(3-chloro-4-cyanophenyl)-3-(4-fluorophenyl)-N-(2-(methylsulfonyl)ethyl)-3,3a,4,5-tetrahydro-2H-benzo[g]indazole-7-carboxamide] the value was 2 nM; for `N#Cc1ccc(N2N=C3c4ccc(C(=O)O)cc4CC[C@@H]3[C@@H]2c2ccc(F)cc2)cc1Cl` [Example 3, (3R,3aR)-2-(3-chloro-4-cyanophenyl)-3-(4-fluorophenyl)-3,3a,4,5-tetrahydro-2H-benzo[g]indazole-7-carboxylic acid], 40.7 nM.
For `N#Cc1ccc(N2N=C3c4ccc(C(=O)O)cc4CCC3C2C2CCCC2)cc1OCc1ccccc1` (racemic) [Example 31, 2-(3-(benzyloxy)-4-cyanophenyl)-3-cyclopentyl-3,3a,4,5-tetrahydro-2H-benzo[g]indazole-7-carboxylic acid] the value was 488 nM.
